In patent US12102675B2, “MRNA therapeutic compositions” (Nutcracker Therapeutics, Inc., priority 2022, dated 2024):
Entries after “also recorded” stand apart in the source; their conditions may differ.

Columns and labels:
[1] = Rat toxicology study, control mRNA in DV-140-F2, intramuscular; type: in vivo, Sprague-Dawley rats; details: 4 doses in 2 weeks
Method: Briefly, Sprague-Dawley rats (n=8) were treated with a control mRNA formulated in DV-140-F2 at 0.03 or 0.3 mg/kg or PBS vehicle. Injections were done 4 times over the course of 13 days and were administered intramuscularly into the hind limb. Whole blood was taken for hematology, and serum taken for clinical chemistry and cytokine analysis at 6 hours post the first dose and final dose, and 2 weeks post the final dose. Additionally, 2 of the animals were sacrificed at 6 hours post the final dose and 2 weeks post final dose and a gross necropsy was performed. Tissue samples were retained and histopathology run on select organs.

[2] = tested on: recurrent or metastatic cervical cancer, tumors express PD-L1 (CPS≥1); details: single agent, disease progression on or after chemotherapy; cited from earlier work
[3] = tested on: persistent, recurrent, or metastatic cervical cancer, tumors express PD-L1 (CPS≥1); details: in combination with chemotherapy, with or without bevacizumab; cited from earlier work
HVEM = target: T1, HVEM (Homo sapiens, UniProt Q92956); test: HVEM activation by LIGHT, HVEM reporter cell line; type: cell-based; details: FIGS. 1A, 1B, 12
T1 construct: host or cells: HVEM reporter cell line (not further described)
T1 sequence (Q92956 39-283): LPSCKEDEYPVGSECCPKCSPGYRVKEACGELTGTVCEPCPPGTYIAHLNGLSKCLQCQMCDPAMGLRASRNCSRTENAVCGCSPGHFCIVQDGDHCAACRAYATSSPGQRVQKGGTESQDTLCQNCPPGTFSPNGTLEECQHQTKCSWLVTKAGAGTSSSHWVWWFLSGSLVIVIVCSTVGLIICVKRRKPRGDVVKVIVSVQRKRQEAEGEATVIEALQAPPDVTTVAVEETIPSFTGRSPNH
Excerpt: FIG. 12 illustrates pre-blocking of soluble LIGHT in HVEM co-HEK transfected cells.
FIGS. 13A-13C are a comparison of HVEM activation with supernatant (blue) or cells (orange) for soluble LIGHT or membrane-stabilized LIGHT.

CD3+ T cells = test: T cell proliferation in co-culture with HEK cells transfected with LIGHT variants; type: cell-based, human; details: vs soluble (Wt) LIGHT, FIGS. 9A, 9B
Method: LIGHT variants were formulated in MessengerMax mRNA Transfection Reagent. Human embryonic kidney (HEK) cells were transfected with the LIGHT variant constructs for cell surface expression of LIGHT. CellTrace Violet (Thermo Fischer Scientific) was used to label CD3+ T cells from the resulting peripheral blood mononuclear cells (PBMC). 100 ng/mL of soluble CD3 Antibody was added to the resulting labeled CD3+ T cells. The T cell proliferation and interferon-gamma (IFN-7) secretion was evaluated about 5 days of co-culture.

primary human T cell = test: Human T cell proliferation in response to ENG or WT hLIGHT mRNA with hIL-12 mRNA; type: cell-based; details: HEK293 transfected with hIL-12 mRNA plus LIGHT mRNA, 1:5 with T cells, anti-CD3 30 or 100 ng/mL, 4 days; relative to IL-12 and WT hLIGHT
Method: This study was designed to compare the ability of ENG and WT hLIGHT mRNAs in combination with hIL-12 mRNA to stimulate primary human T cell proliferation. Human T cells were isolated from PBMCs from 1 healthy donor and stained with CellTrace Violet. HEK293 cells were transfected with hIL-12 mRNA (RNA-683) and WT hLIGHT (RNA-786) or ENG hLIGHT (RNA-1359) mRNA formulated in Lipofectamine MessengerMAX (0.5 ng each mRNA per 1000 cells). Control cells were transfected with noncoding mRNA control in the same way. Transfected HEK293 cells were cocultured with the T cells in a 1:5 ratio in the presence of 30 ng/mL or 100 ng/mL anti-CD3 antibody to mimic antigen specific TCR engagement for 4 days at 37° C., 5% CO2. CD8+ T cell proliferation was assessed by flow cytometry and the proliferation index was calculated. […] The results are shown in FIG. 10A, where ENG=engineered; HEK=human embryonic kidney; IL-12=interleukin-12; PBMC=peripheral blood mononuclear cell; WT=wildtype. The data in FIG. 10A represent mean±standard deviation (n=4). Statistical analysis was performed by unpaired student's t-test (P<0.05).

transfected cells = test: Surface expression of soluble or membrane-stabilized LIGHT by flow cytometry using HVEM binding; type: cell-based; details: compared to WT LIGHT mRNA
Excerpt: FIGS. 14A and 14B depict the assessment of surface expression of soluble LIGHT or membrane-stabilized LIGHT by flow cytometry using HVEM binding.

[4] = High dose in rat, 100 μg RNA IM
[5] = Therapeutic dose scaled for rat, 30 μg RNA IM

For `CCCCCCCCCCN(CC(N)=O)C(=O)CN(CCCCCCCCCC)C(=O)CN(CCCCCCCCCC)C(=O)CN(CCCCCCCCCC)C(=O)CNCCO` [Compound 140, N-(2-amino-2-oxoethyl)-N-decyl-2-(N-decyl-2-(N-decyl-2-(N-decyl-2-((2-hydroxyethyl)amino)acetamido)acetamido)acetamido)acetamide], the Gross organ pathology [1, 4] was “None observed”, the “Injection site reactions or other clinical observations” value [1, 4] was “None observed” and the Gross organ pathology [1, 5] was “None observed”. The “Injection site reactions or other clinical observations” value [1, 5] was “None observed”.

For pembrolizumab [KEYTRUDA], the objective response [2] is listed as “around 14%” and the overall survival [3] is listed as “improvements in overall survival”.

B1: soluble LIGHT: Wild-type soluble human LIGHT (SEQ ID NO: 1) (protein)
chain: MEESVVRPSVFVVDGQTDIPFTRLGRSHRRQSCSVARVGLGLLLLLMGAGLAVQGWFLLQLHWRLGEMVTRLPDGPAGSWEQLIQERRSHEVNPAAHLTGANSSLTGSGGPLLWETQLGLAFLRGLSYHDGALVVTKAGYYYIYSKVQLGGVGCPLGLASTITHGLYKRTPRYPEELELLVSQQSPCGRATSSSRVWWDSSFLGGVVHLEAGEEVVVRVLDERLVRLRDGTRSYFGAFMV
modifications: Human Wild Type LIGHT (786) aa
With B1 the “effect of soluble LIGHT on HVEM binding and signaling by membrane-stabilized LIGHT” value (HVEM) was “decreases the ability of membrane-stabilized LIGHT to activate HVEM; also recorded: competes for HVEM binding and reduces signaling by membrane-stabilized LIGHT”.

B2: ENG hLIGHT: mRNA SEQ ID NO: 18 encoding human LIGHT with amino acids #66-92 replaced by 10 amino acid linker (SEQ ID NO: 17) (nucleic acid)
chain: AGGCAUAGAAGUCGAGACACAGCCACUAAGUAAGCCACCAUGGAGGAGAGCGUGGUGCGGCCUAGCGUGUUCGUGGUCGACGGCCAGACCGACAUCCCCUUCACCAGACUGGGAAGAAGCCACAGAAGGCAGUCUUGCUCCGUGGCCAGAGUGGGCCUGGGCCUGCUCCUGCUGCUGAUGGGCGCUGGCCUGGCCGUGCAAGGCUGGUUCCUGCUGCAGCUGCACUGGCGGCUGGGCAGCAGCGCCUCUACCGAUAAGACCCACACCGUGAACCCUGCCGCCCACCUGACCGGCGCCAACAGCUCUCUGACCGGAUCUGGCGGACCUCUGCUGUGGGAGACACAGCUGGGCCUUGCUUUUCUGCGGGGCCUGAGCUACCACGACGGCGCUCUGGUGGUUACAAAGGCCGGCUACUACUACAUCUACAGCAAGGUGCAGCUGGGAGGCGUGGGUUGUCCACUGGGACUGGCCAGCACAAUCACACACGGCCUUUAUAAGCGGACCCCUAGAUACCCCGAGGAACUGGAACUGCUGGUCUCCCAGCAGAGCCCUUGCGGCAGAGCCACAAGCAGCAGCAGAGUGUGGUGGGACAGCUCAUUCCUGGGCGGCGUGGUGCAUCUGGAAGCCGGCGAGAAAGUGGUGGUCAGAGUGCUGGACGAGAGACUGGUGCGGCUGAGAGAUGGGACCCGCUCCUACUUCGGCGCCUUUAUGGUGUGAUAAGCGCCGCCUCCGGGACAGUGCACCCAGGCUGCGGCCCCUCCCCCGUCCUGGAGGUUCCCCAGCCCCACUUACCGCUUAAUGCGCCAAUAAACCAAUGAACGAAGCAAAAAAAAAAAAAAAAAAAAAAAAAAAAAAAAAAAAAAAAAAAAAAAAAAAAAAAAAAAAAAAAAAAAAAAAAAAAAAAAAAAAAAAAAAAAAAAAAAAAAAAAAAAAAAAAAAAAAAAAAAAAAAAAAAAAAAAAAAAAAAAAAAAAAAAAAAAAAAAAAAAAAAAAA
modifications: LIGHT ICD TM 1-66 RLG … LIGHT 92-240 1359, aka 1495 nt
With B2 the T-cell proliferation (CD3+ T cells; listed as 1359) was “increase of T-cell proliferation”, the T-cell proliferation (CD3+ T cells; listed as ENG LIGHT mRNA) was “increased T cell proliferation” and the “CD8+ T cell proliferation and survival” value (primary human T cell) was “increased CD8+ T cell proliferation and survival”. For the same molecule, the “surface expression and bioactivity on transfected cells” value (transfected cells) was “higher surface expression and bioactivity”.
